Values of other authors, collected in US20010014694A1, “Substituted phenyl compounds and derivatives thereof that modulate the activity of endothelin” (priority 1996, published 2001).
Where two headings read alike, the source gives them in different places.

Columns and labels:
ETA receptor = settings: read-out: IC50, inhibition of 125I-labelled endothelin-1 binding, cited from earlier work
ETB receptors = settings: tissues in which ETB receptors predominate; read-out: fails to inhibit binding to receptors at concentrations up to; cited from earlier work
[1] = tested on: cardiovascular tissues (ETA receptors predominate); settings: cited from earlier work
isolated vascular strips = settings: read-out: EC50, contractile agent; cited from earlier work
[2] = tested on: non-cardiovascular tissues, such as kidney, adrenal gland, and cerebellum (ETB receptors predominate); settings: cited from earlier work

For “cyclo(D-Glu-L-Ala-allo-D-Ile-L-Leu-D-Trp) [BE-18257B]”, the IC50 (ETA receptor; aortic smooth muscle) is listed as 1400 nM, the IC50 (ETA receptor; cultured aortic smooth muscle cells) is listed as 500 nM and the IC50 (ETA receptor; ventricle membranes) is listed as 800 nM. The IC50 (ETB receptors) was > 100000 nM.

In the case of “endothelin-1: endothelium-derived potent twenty-one amino acid peptide vasoconstrictor, one of three endothelin isopeptides”, the “potency of inhibition of 125I-labelled endothelin-1 binding relative to endothelin-3” value [1] is listed as “forty to seven hundred times more potently”, the EC50 (isolated vascular strips) is listed as 0.4 nM and the “extent of inhibition of 125I-labelled endothelin-1 binding” value [2] is listed as “to the same extent”.
